Where two headings read alike, the source gives them in different places.
Details: diastereomeric ratio 1,2 to 3,4 in solids 95:5

## O=C(O)c1ccccc1O [Salicylate]
Salt prepared in EtOH
  stability remark for salt solids: stable
Salt prepared in iPrOAc
  stability remark for salt solids: stable

— US20030139446A1, “Preparation of pharmaceutical salts” (Schering Corporation, priority 2001, published 2003)
